Assay results as given in patent US9738634B2, “Heterocyclic amide compound and herbicide” (SYNGENTA PARTICIPATIONS AG, priority 2013, dated 2017).

What was measured:
Type in all cases: in vivo
Conditions in all cases: treatment dosage 320 g/ha
[1] = test system: bulrush; test: Test Example 2: weedkilling efficacy, growth period weed treatment in the submerged state; B: bulrush
Method in brief: (§1)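 Seedlings at 1-2 leaves in 4 cm-deep submerged alluvial soil received emulsion formulations on the water surface, dosed per hectare; effects were judged 3 weeks on.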

[2] = test system: green foxtail; test: Test Example 4: weedkilling efficacy by foliar treatment; E: green foxtail
Method in brief: (§2)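 Seeds are spot-sown into sterilized diluvial soil and covered with about 1.5 cm of soil. After 14 days' greenhouse growth at 25 to 30° C, plants are sprayed on stems and leaves with diluted emulsion at the stated g/ha rate, then scored at 3 weeks.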

[3] = test system: oval-leafed pondweed; test: Test Example 1: weedkilling efficacy, preemergent weed treatment in the submerged state; C: oval-leafed pondweed
Method in brief: (§3)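 Submerged pre-emergence treatment, water-surface application of compound emulsion at g/ha dosages; 4 cm flooded alluvial soil, weeds sown and 2.5-leaf rice transplanted same day. Rated after 3 weeks, greenhouse.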

[4] = test system: catchweed; test: Test Example 3: weedkilling efficacy through soil treatment; O: catchweed
Method in brief: (§4)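 Crop and weed responses were judged three weeks after a uniform surface spray of the water-diluted emulsion at the given g/ha rate. Seeds sat beneath about 1.5 cm of sterilized diluvial soil, and boxes stood in a greenhouse at 25 to 30° C.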

[5] = test system: corn; test: Test Example 3: soil treatment, effect on crop; c: corn
Method in brief: as §4

[6] = test system: wild oat; test: Test Example 3: weedkilling efficacy through soil treatment; G: wild oat
Method in brief: as §4

[7] = test system: Italian ryegrass; test: Test Example 4: weedkilling efficacy by foliar treatment; I: Italian ryegrass
Method in brief: as §2

[8] = test system: common wind-grass; test: Test Example 4: weedkilling efficacy by foliar treatment; J: common wind-grass
Method in brief: as §2

[9] = test system: fig-leafed goosefoot; test: Test Example 4: weedkilling efficacy by foliar treatment; M: fig-leafed goosefoot
Method in brief: as §2

[10] = test system: catchweed; test: Test Example 4: weedkilling efficacy by foliar treatment; O: catchweed
Method in brief: as §2

[11] = test system: beet; test: Test Example 4: foliar treatment, effect on crop; f: beet
Method in brief: as §2

[12] = test system: soybean; test: Test Example 4: foliar treatment, effect on crop; d: soybean
Method in brief: as §2

[13] = test system: beet; test: Test Example 3: soil treatment, effect on crop; f: beet
Method in brief: as §4

[14] = test system: oval-leafed pondweed; test: Test Example 2: weedkilling efficacy, growth period weed treatment in the submerged state; C: oval-leafed pondweed
Method in brief: as §1

[15] = test system: rapeseed; test: Test Example 3: soil treatment, effect on crop; g: rapeseed
Method in brief: as §4

[16] = test system: green foxtail; test: Test Example 3: weedkilling efficacy through soil treatment; E: green foxtail
Method in brief: as §4

[17] = test system: chickweed; test: Test Example 3: weedkilling efficacy through soil treatment; N: chickweed
Method in brief: as §4

[18] = test system: redroot pigweed; test: Test Example 4: weedkilling efficacy by foliar treatment; L: redroot pigweed
Method in brief: as §2

[19] = test system: rapeseed; test: Test Example 4: foliar treatment, effect on crop; g: rapeseed
Method in brief: as §2

[20] = test system: soybean; test: Test Example 3: soil treatment, effect on crop; d: soybean
Method in brief: as §4

[21] = test system: corn; test: Test Example 4: foliar treatment, effect on crop; c: corn
Method in brief: as §2

[22] = test system: fig-leafed goosefoot; test: Test Example 3: weedkilling efficacy through soil treatment; M: fig-leafed goosefoot
Method in brief: as §4

[23] = test system: crabgrass; test: Test Example 3: weedkilling efficacy through soil treatment; D: crabgrass
Method in brief: as §4

[24] = test system: birds-eye speedwell; test: Test Example 4: weedkilling efficacy by foliar treatment; p: birds-eye speedwell
Method in brief: as §2

[25] = test system: directly sown rice; test: Test Example 3: soil treatment, effect on crop; b: directly sown rice
Method in brief: as §4

[26] = test system: barnyard grass; test: Test Example 1: weedkilling efficacy, preemergent weed treatment in the submerged state; A: barnyard grass
Method in brief: as §3

[27] = test system: common wind-grass; test: Test Example 3: weedkilling efficacy through soil treatment; J: common wind-grass
Method in brief: as §4

[28] = test system: Italian ryegrass; test: Test Example 3: weedkilling efficacy through soil treatment; I: Italian ryegrass
Method in brief: as §4

[29] = test system: wheat; test: Test Example 4: foliar treatment, effect on crop; e: wheat
Method in brief: as §2

[30] = test system: black-grass; test: Test Example 4: weedkilling efficacy by foliar treatment; H: black-grass
Method in brief: as §2

[31] = test system: wheat; test: Test Example 3: soil treatment, effect on crop; e: wheat
Method in brief: as §4

[32] = test system: wild oat; test: Test Example 4: weedkilling efficacy by foliar treatment; G: wild oat
Method in brief: as §2

[33] = test system: barnyard grass; test: Test Example 2: weedkilling efficacy, growth period weed treatment in the submerged state; A: barnyard grass
Method in brief: as §1

[34] = test system: barnyard grass; test: Test Example 3: weedkilling efficacy through soil treatment; F: barnyard grass
Method in brief: as §4

[35] = test system: transplanted rice; test: Test Example 1: preemergent weed treatment in the submerged state, effect on crop; a: transplanted rice
Method in brief: as §3

[36] = test system: crabgrass; test: Test Example 4: weedkilling efficacy by foliar treatment; D: crabgrass
Method in brief: as §2

[37] = test system: Indian mallow; test: Test Example 3: weedkilling efficacy through soil treatment; K: Indian mallow
Method in brief: as §4

[38] = test system: Indian mallow; test: Test Example 4: weedkilling efficacy by foliar treatment; K: Indian mallow
Method in brief: as §2

[39] = test system: bulrush; test: Test Example 1: weedkilling efficacy, preemergent weed treatment in the submerged state; B: bulrush
Method in brief: as §3

[40] = test system: redroot pigweed; test: Test Example 3: weedkilling efficacy through soil treatment; L: redroot pigweed
Method in brief: as §4

[41] = test system: black-grass; test: Test Example 3: weedkilling efficacy through soil treatment; H: black-grass
Method in brief: as §4

[42] = test system: barnyard grass; test: Test Example 4: weedkilling efficacy by foliar treatment; F: barnyard grass
Method in brief: as §2

[43] = test system: directly sown rice; test: Test Example 4: foliar treatment, effect on crop; b: directly sown rice
Method in brief: as §2

[44] = test system: chickweed; test: Test Example 4: weedkilling efficacy by foliar treatment; N: chickweed
Method in brief: as §2

## CC1=C(c2ccccc2)C(=O)N(C(C)(C)C(=O)Nc2cc(C(F)(F)F)cc(C)n2)CO1 [B-2-51]
[1]
  B (bulrush) weedkilling efficacy grade: 5 (weed kill ratio 90% or more, (practically complete withering))
[2]
  E (green foxtail) weedkilling efficacy grade: 5 (weed kill ratio 90% or more, (practically complete withering))
[3]
  C (oval-leafed pondweed) weedkilling efficacy grade: 5 (weed kill ratio 90% or more, (practically complete withering))
[4]
  O (catchweed) weedkilling efficacy grade: 3 (weed kill ratio 40% or more, less than 70%)
[5]
  c (corn) effect on crop grade: 1 (weed kill ratio 5% or more, less than 20%)
[6]
  G (wild oat) weedkilling efficacy grade: 5 (weed kill ratio 90% or more, (practically complete withering))
[7]
  I (Italian ryegrass) weedkilling efficacy grade: 5 (weed kill ratio 90% or more, (practically complete withering))
[8]
  J (common wind-grass) weedkilling efficacy grade: 5 (weed kill ratio 90% or more, (practically complete withering))
[9]
  M (fig-leafed goosefoot) weedkilling efficacy grade: 4 (weed kill ratio 70% or more, less than 90%)
[10]
  O (catchweed) weedkilling efficacy grade: 4 (weed kill ratio 70% or more, less than 90%)
[11]
  f (beet) effect on crop grade: 4 (weed kill ratio 70% or more, less than 90%)
[12]
  d (soybean) effect on crop grade: 3 (weed kill ratio 40% or more, less than 70%)
[13]
  f (beet) effect on crop grade: 4 (weed kill ratio 70% or more, less than 90%)
[14]
  C (oval-leafed pondweed) weedkilling efficacy grade: 5 (weed kill ratio 90% or more, (practically complete withering))
[15]
  g (rapeseed) effect on crop grade: 2 (weed kill ratio 20% or more, less than 40%)
[16]
  E (green foxtail) weedkilling efficacy grade: 5 (weed kill ratio 90% or more, (practically complete withering))
[17]
  N (chickweed) weedkilling efficacy grade: 4 (weed kill ratio 70% or more, less than 90%)
[18]
  L (redroot pigweed) weedkilling efficacy grade: 4 (weed kill ratio 70% or more, less than 90%)
[19]
  g (rapeseed) effect on crop grade: 3 (weed kill ratio 40% or more, less than 70%)
[20]
  d (soybean) effect on crop grade: 0 (weed kill ratio 5% or less (practically no effect))
[21]
  c (corn) effect on crop grade: 0 (weed kill ratio 5% or less (practically no effect))
[22]
  M (fig-leafed goosefoot) weedkilling efficacy grade: 4 (weed kill ratio 70% or more, less than 90%)
[23]
  D (crabgrass) weedkilling efficacy grade: 5 (weed kill ratio 90% or more, (practically complete withering))
[24]
  P (birds-eye speedwell) weedkilling efficacy grade: 4 (weed kill ratio 70% or more, less than 90%)
[25]
  b (directly sown rice) effect on crop grade: 3 (weed kill ratio 40% or more, less than 70%)
[26]
  A (barnyard grass) weedkilling efficacy grade: 5 (weed kill ratio 90% or more, (practically complete withering))
[27]
  J (common wind-grass) weedkilling efficacy grade: 5 (weed kill ratio 90% or more, (practically complete withering))
[28]
  I (Italian ryegrass) weedkilling efficacy grade: 5 (weed kill ratio 90% or more, (practically complete withering))
[29]
  e (wheat) effect on crop grade: 1 (weed kill ratio 5% or more, less than 20%)
[30]
  H (black-grass) weedkilling efficacy grade: 5 (weed kill ratio 90% or more, (practically complete withering))
[31]
  e (wheat) effect on crop grade: 0 (weed kill ratio 5% or less (practically no effect))
[32]
  G (wild oat) weedkilling efficacy grade: 5 (weed kill ratio 90% or more, (practically complete withering))
[33]
  A (barnyard grass) weedkilling efficacy grade: 5 (weed kill ratio 90% or more, (practically complete withering))
[34]
  F (barnyard grass) weedkilling efficacy grade: 5 (weed kill ratio 90% or more, (practically complete withering))
[35]
  a (transplanted rice) effect on crop grade: 0 (weed kill ratio 5% or less (practically no effect))
[36]
  D (crabgrass) weedkilling efficacy grade: 5 (weed kill ratio 90% or more, (practically complete withering))
[37]
  K (Indian mallow) weedkilling efficacy grade: 2 (weed kill ratio 20% or more, less than 40%)
[38]
  K (Indian mallow) weedkilling efficacy grade: 4 (weed kill ratio 70% or more, less than 90%)
[39]
  B (bulrush) weedkilling efficacy grade: 5 (weed kill ratio 90% or more, (practically complete withering))
[40]
  L (redroot pigweed) weedkilling efficacy grade: 4 (weed kill ratio 70% or more, less than 90%)
[41]
  H (black-grass) weedkilling efficacy grade: 5 (weed kill ratio 90% or more, (practically complete withering))
[42]
  F (barnyard grass) weedkilling efficacy grade: 5 (weed kill ratio 90% or more, (practically complete withering))
[43]
  b (directly sown rice) effect on crop grade: 4 (weed kill ratio 70% or more, less than 90%)
[44]
  N (chickweed) weedkilling efficacy grade: 4 (weed kill ratio 70% or more, less than 90%)
